Experiments:
hOX1 (orexin-1 receptor) = target: T1, hOX1 (orexin-1 receptor) (Homo sapiens, UniProt O43613); test: radioligand binding assay, OX1 receptor (hOX1 Bind hKi); conditions: membranes from CHO cells expressing the OX1 receptor
T1 construct: expressed in transfected cells; host or cells: CHO cells (membranes)
T1 sequence (O43613 1-425): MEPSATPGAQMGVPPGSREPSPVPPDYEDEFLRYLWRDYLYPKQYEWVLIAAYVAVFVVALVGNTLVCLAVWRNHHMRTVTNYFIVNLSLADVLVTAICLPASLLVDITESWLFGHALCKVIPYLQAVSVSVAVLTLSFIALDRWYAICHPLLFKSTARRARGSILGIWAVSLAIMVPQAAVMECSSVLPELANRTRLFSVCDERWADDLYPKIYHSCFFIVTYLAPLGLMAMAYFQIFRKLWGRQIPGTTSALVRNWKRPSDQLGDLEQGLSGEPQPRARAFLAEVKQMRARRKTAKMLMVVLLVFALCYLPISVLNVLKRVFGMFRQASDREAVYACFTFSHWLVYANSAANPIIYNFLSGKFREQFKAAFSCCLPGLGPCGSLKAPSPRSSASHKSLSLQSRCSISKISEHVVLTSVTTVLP

human orexin-2 receptor = target: T2, human orexin-2 receptor (Homo sapiens, UniProt O43614); test: radioligand binding assay, OX2 receptor (hOX2 Bind hKi); conditions: membranes from CHO cells expressing the OX2 receptor
T2 construct: expressed in transfected cells; host or cells: CHO cells (membranes)
T2 sequence (O43614 1-444): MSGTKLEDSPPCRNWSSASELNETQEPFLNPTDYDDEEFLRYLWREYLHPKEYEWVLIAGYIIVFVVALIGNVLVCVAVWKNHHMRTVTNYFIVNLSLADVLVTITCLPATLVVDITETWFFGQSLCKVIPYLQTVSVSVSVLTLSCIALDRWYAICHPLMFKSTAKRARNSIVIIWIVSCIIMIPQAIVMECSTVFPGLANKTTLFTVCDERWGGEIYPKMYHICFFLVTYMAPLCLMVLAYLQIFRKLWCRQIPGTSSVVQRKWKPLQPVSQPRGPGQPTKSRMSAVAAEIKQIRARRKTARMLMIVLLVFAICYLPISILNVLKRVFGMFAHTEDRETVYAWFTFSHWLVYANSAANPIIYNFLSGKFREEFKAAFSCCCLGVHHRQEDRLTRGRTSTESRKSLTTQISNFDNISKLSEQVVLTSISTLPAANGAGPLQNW
Protocol: The utility of the compounds in accordance with the present invention as orexin receptor OX1R and/or OX2R antagonists may be readily determined without undue experimentation by methodology well known in the art, including the “FLIPR Ca^2+ Flux Assay” (Okumura et al., Biochem. Biophys. Res. Comm. 280:976-981, 2001). In a typical experiment the OX1 and OX2 receptor antagonistic activity of the compounds of the present invention was determined in accordance with the following experimental method. For intracellular calcium measurements, Chinese hamster ovary (CHO) cells expressing the rat orexin-1 receptor or the human orexin-2 receptor, are grown in Iscove's modified DMEM containing 2 mM L-glutamine, […], 1% hypoxanthine-thymidine supplement, 100 U/ml penicillin, 100 μg/ml streptomycin and 10% heat-inactivated fetal calf serum (FCS). The cells are seeded at 20,000 cells/well into Becton-Dickinson black 384-well clear bottom sterile plates coated with poly-D-lysine. All reagents were from GIBCO-Invitrogen Corp. The seeded plates are incubated overnight at 37° C. and 5% CO2. Ala-6,12 human orexin-A as the agonist is prepared as a 1 mM stock solution in 1% bovine serum albumin (BSA) and diluted in assay buffer (HBSS containing 20 mM HEPES, 0.1% BSA and 2.5 mM probenecid, pH7.4) for use in the assay at a final concentration of 70 pM. Test compounds are prepared as 10 mM stock solution in DMSO, then diluted in 384-well plates, first in DMSO, then assay buffer. On the day of the assay, cells are washed 3 times with 100 μl assay buffer and then incubated for 60 min (37° C., 5% CO2) in 60 μl assay buffer containing 1 μM Fluo-4AM ester, 0.02% pluronic acid, and 1% BSA. The dye loading solution is then aspirated and cells are washed 3 times with 100 μl assay buffer. 30 μl of that same buffer is left in each well. Within the Fluorescent Imaging Plate Reader (FLIPR, Molecular Devices), test compounds are added to the plate in a volume of 25 μl, incubated for 5 min and finally 25 μl of agonist is added. Fluorescence is measured for each well at 1 second intervals for 5 minutes and the height of each fluorescence peak is compared to the height of the fluorescence peak induced by […] Ala-6,12 orexin-A with buffer in place of antagonist. For each antagonist, IC50 value (the concentration of compound needed to inhibit 50% of the agonist response) is determined. Alternatively, compound potency can be assessed by a radioligand binding assay (described in Bergman et. al. Bioorg. Med. Chem. Lett. 2008, 18, 1425-1430) in which the inhibition constant (Ki) is determined in membranes prepared from CHO cells expressing either the OX1 or OX2 receptor. The intrinsic orexin receptor antagonist activity of a compound which may be used in the present invention may be determined by these assays. The following tables show representative data for the compounds of the Examples as orexin receptor antagonists as determined by the foregoing assays wherein the hOX2 Ki is a measure of the ability of the test compound to inhibit the action of the human orexin-2 receptor and the hOX1R is a measure of the ability of the test compound to inhibit the action of the rat orexin-1 receptor.

Structure (SMILES) | Ki (hOX1 (orexin-1 receptor)) | Ki (human orexin-2 receptor)
C[C@@H]1CC[C@@H](C#Cc2ccnc(CO)c2)CN1C(=O)c1ccccc1-n1nccn1 [Example 12, (4-{[(3S,6R)-6-methyl-1-{[2-(2H-1,2,3-triazol-2-yl)phenyl]carbonyl}piperidin-3-yl]ethynyl}pyridin-2-yl)methanol] | 75 nM | 25 nM
Cc1ccc(-n2nccn2)c(C(=O)N2CCCCC2C#Cc2cnc3ccccc3c2)c1 (stereo not drawn) [Example 18, 3-[(1-{[5-methyl-2-(2H-1,2,3-triazol-2-yl)phenyl]carbonyl}piperidin-2-yl)ethynyl]quinoline] | > 476 nM | > 4460 nM
Cc1ccc(-n2nccn2)c(C(=O)N2CCCCC2C#Cc2ccccc2)c1 (stereo not drawn) [Example 14, [5-Methyl-2-(2H-1,2,3-triazol-2-yl)phenyl][2-(phenylethynyl)piperidin-1-yl]methanone] | 357 nM | 441 nM

Source: patent publication US8940898B2, “Piperidinyl alkyne orexin receptor antagonists” (Merck Sharp & Dohme Corp., priority 2011, dated 2015)
